Assay results reported in US9593108B2, “Compounds and methods for antiviral treatment” (PTC Therapeutics, Inc., priority 2009, dated 2017).

Experiments:
[1] = test system: HCV replicon RNA (GenBank Accession No. AJ242654); test: HCV Replicon Assay (replicon RNA reduction and/or Fluc reporter signal); format: cell-based, Hepatitis C virus; settings: Hepatitis C virus, 72 h, replicon-containing cells cultured with test compound for up to 3 days
Summary of the method: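 IC50 values mostly reflect the drop in replicon RNA, though Fluc reporter signal may also be used. Compound incubated with cells carrying the bicistronic replicon for as long as 3 days; interferon served as positive control.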

SMILES | IC50 [1] | melting point
Cc1ccc2c(C#N)c(-c3ccc(S(=O)(=O)NC(C)C)nc3)n(C3CCC3)c2n1 [Cpd 96, 5-(3-cyano-1-cyclobutyl-6-methyl-1H-pyrrolo[2,3-b]pyridin-2-yl)-N-(propan-2-yl)pyridine-2-sulfonamide] | < 500 nM | 211 to 216 °C
N#Cc1c(-c2ccc(S(=O)(=O)NC(CF)CF)cn2)n(C2CCC2)c2cc(Cl)ncc12 [Cpd 97, 6-(6-chloro-3-cyano-1-cyclobutyl-1H-pyrrolo[3,2-c]pyridin-2-yl)-N-(1,3-difluoropropan-2-yl)pyridine-3-sulfonamide] | < 500 nM | 215 to 216 °C
N#Cc1c(-c2ccc(S(=O)(=O)NC3(C(F)(F)F)CC3)cn2)n(C2CCC2)c2cc(Cl)ncc12 [Cpd 98, 6-(6-chloro-3-cyano-1-cyclobutyl-1H-pyrrolo[3,2-c]pyridin-2-yl)-N-[1-(trifluoromethyl)cyclopropyl]pyridine-3-sulfonamide] | < 500 nM | 227 to 228 °C
CC1(NS(=O)(=O)c2ccc(-c3c(C#N)c4cnc(Cl)cc4n3C3CCC3)nc2)CC1 [Cpd 99, 6-(6-chloro-3-cyano-1-cyclobutyl-1H-pyrrolo[3,2-c]pyridin-2-yl)-N-(1-methylcyclopropyl)pyridine-3-sulfonamide] | < 500 nM | 167 to 168 °C
CC(C)NS(=O)(=O)c1cnc(-c2c(C#N)c3cnc(Cl)cc3n2C2CCC2)nc1 [Cpd 100, 2-(6-chloro-3-cyano-1-cyclobutyl-1H-pyrrolo[3,2-c]pyridin-2-yl)-N-(propan-2-yl)pyrimidine-5-sulfonamide] | < 500 nM | 238 to 239 °C
N#Cc1c(-c2ncc(S(=O)(=O)NC(CF)CF)cn2)n(C2CCC2)c2cc(Cl)ncc12 [Cpd 101, 2-(6-chloro-3-cyano-1-cyclobutyl-1H-pyrrolo[3,2-c]pyridin-2-yl)-N-(1,3-difluoropropan-2-yl)pyrimidine-5-sulfonamide] | < 500 nM | 237 to 238 °C
C[C@H](NS(=O)(=O)c1ccc(-c2c(C#N)c3cnc(Cl)cc3n2C2CCC2)cc1)C(F)(F)F [Cpd 102, 4-(6-chloro-3-cyano-1-cyclobutyl-1H-pyrrolo[3,2-c]pyridin-2-yl)-N-[(2S)-1,1,1-trifluoropropan-2-yl]benzenesulfonamide] | < 500 nM | 202 to 203 °C
C[C@H](NS(=O)(=O)c1ccc(-c2c(C#N)c3ccncc3n2C2CCC2)nc1)C(F)(F)F [Cpd 103, 6-(3-cyano-1-cyclobutyl-1H-pyrrolo[2,3-c]pyridin-2-yl)-N-[(2S)-1,1,1-trifluoropropan-2-yl]pyridine-3-sulfonamide] | < 500 nM | 199 to 201 °C
C[C@@H](NS(=O)(=O)c1ccc(-c2c(C#N)c3cc(Cl)ncc3n2C2CCC2)nc1)C(F)(F)F [Cpd 104, 6-(5-chloro-3-cyano-1-cyclobutyl-1H-pyrrolo[2,3-c]pyridin-2-yl)-N-[(2R)-1,1,1-trifluoropropan-2-yl]pyridine-3-sulfonamide] | < 500 nM | 181 to 185 °C
C[C@@H](NS(=O)(=O)c1ccc(-c2c(C#N)c3cc(Cl)ncc3n2C2CCC2)cc1)C(F)(F)F [Cpd 105, 4-(5-chloro-3-cyano-1-cyclobutyl-1H-pyrrolo[2,3-c]pyridin-2-yl)-N-[(2R)-1,1,1-trifluoropropan-2-yl]benzenesulfonamide] | < 500 nM | 248 to 250 °C
N#Cc1c(-c2ccc(S(=O)(=O)NC3CC3)cn2)n(C2CCC2)c2cnc(Cl)cc12 [Cpd 106, 6-(5-chloro-3-cyano-1-cyclobutyl-1H-pyrrolo[2,3-c]pyridin-2-yl)-N-cyclopropylpyridine-3-sulfonamide] | < 500 nM | 170 to 172 °C
C[C@@H](NS(=O)(=O)c1ccc(-c2c(C#N)c3cc(C#N)cnc3n2C2CCC2)nc1)C(F)(F)F [Cpd 107, 6-(3,5-dicyano-1-cyclobutyl-1H-pyrrolo[2,3-b]pyridin-2-yl)-N-[(2R)-1,1,1-trifluoropropan-2-yl]pyridine-3-sulfonamide] | < 500 nM | 202 to 203 °C
C[C@H](NS(=O)(=O)c1ccc(-c2c(C#N)c3cc(C#N)cnc3n2C2CCC2)nc1)C(F)(F)F [Cpd 108, 6-(3,5-dicyano-1-cyclobutyl-1H-pyrrolo[2,3-b]pyridin-2-yl)-N-[(2S)-1,1,1-trifluoropropan-2-yl]pyridine-3-sulfonamide] | < 500 nM | 203 to 204 °C
C[C@H](NS(=O)(=O)c1cnc(-c2c(C#N)c3cc(C#N)cnc3n2C2CCC2)nc1)C(F)(F)F [Cpd 109, 2-(3,5-dicyano-1-cyclobutyl-1H-pyrrolo[2,3-b]pyridin-2-yl)-N-[(2S)-1,1,1-trifluoropropan-2-yl]pyrimidine-5-sulfonamide] | < 500 nM | 216 to 219 °C
C[C@H](NS(=O)(=O)c1ccc(-c2c(C#N)c3cc(C#N)cnc3n2C2CCC2)cc1)C(F)(F)F [Cpd 110, 4-(3,5-dicyano-1-cyclobutyl-1H-pyrrolo[2,3-b]pyridin-2-yl)-N-[(2S)-1,1,1-trifluoropropan-2-yl]benzenesulfonamide] | < 500 nM | 241 to 243 °C
N#Cc1cnc2c(c1)c(C#N)c(-c1ccc(S(=O)(=O)NC3(C(F)(F)F)CC3)cn1)n2C1CCC1 [Cpd 111, 6-(3,5-dicyano-1-cyclobutyl-1H-pyrrolo[2,3-b]pyridin-2-yl)-N-[1-(trifluoromethyl)cyclopropyl]pyridine-3-sulfonamide] | < 500 nM | 207 to 208 °C
N#Cc1cnc2c(c1)c(C#N)c(-c1ccc(S(=O)(=O)NC3(C(F)(F)F)CC3)cc1)n2C1CCC1 [Cpd 112, 4-(3,5-dicyano-1-cyclobutyl-1H-pyrrolo[2,3-b]pyridin-2-yl)-N-[1-(trifluoromethyl)cyclopropyl]benzenesulfonamide] | < 500 nM | 231 to 233 °C
CC1(NS(=O)(=O)c2ccc(-c3c(C#N)c4cc(C#N)cnc4n3C3CCC3)nc2)CC1 [Cpd 113, 6-(3,5-dicyano-1-cyclobutyl-1H-pyrrolo[2,3-b]pyridin-2-yl)-N-(1-methylcyclopropyl)pyridine-3-sulfonamide] | < 500 nM | 198 to 200 °C
CC1(NS(=O)(=O)c2cnc(-c3c(C#N)c4cc(C#N)cnc4n3C3CCC3)nc2)CC1 [Cpd 114, 2-(3,5-dicyano-1-cyclobutyl-1H-pyrrolo[2,3-b]pyridin-2-yl)-N-(1-methylcyclopropyl)pyrimidine-5-sulfonamide] | < 500 nM | 229 to 231 °C
C[C@H](NS(=O)(=O)c1ccc(-c2c(C#N)c3cc(C4CC4)cnc3n2C2CCC2)cc1)C(F)(F)F [Cpd 115, 4-(3-cyano-1-cyclobutyl-5-cyclopropyl-1H-pyrrolo[2,3-b]pyridin-2-yl)-N-[(2S)-1,1,1-trifluoropropan-2-yl]benzenesulfonamide] | 500 to 2000 nM | 196 to 203 °C
C[C@@H](NS(=O)(=O)c1ccc(-c2c(C#N)c3cc(C4CC4)cnc3n2C2CCC2)cc1)C(F)(F)F [Cpd 116, 4-(3-cyano-1-cyclobutyl-5-cyclopropyl-1H-pyrrolo[2,3-b]pyridin-2-yl)-N-[(2R)-1,1,1-trifluoropropan-2-yl]benzenesulfonamide] | < 500 nM | 190 to 195 °C
C[C@H](NS(=O)(=O)c1ccc(-c2c(C#N)c3cc(C4CC4)cnc3n2C2CCC2)nc1)C(F)(F)F [Cpd 117, 6-(3-cyano-1-cyclobutyl-5-cyclopropyl-1H-pyrrolo[2,3-b]pyridin-2-yl)-N-[(2S)-1,1,1-trifluoropropan-2-yl]pyridine-3-sulfonamide] | < 500 nM | 136 to 144 °C
C[C@@H](NS(=O)(=O)c1ccc(-c2c(C#N)c3cc(C4CC4)cnc3n2C2CCC2)nc1)C(F)(F)F [Cpd 118, 6-(3-cyano-1-cyclobutyl-5-cyclopropyl-1H-pyrrolo[2,3-b]pyridin-2-yl)-N-[(2R)-1,1,1-trifluoropropan-2-yl]pyridine-3-sulfonamide] | < 500 nM | 138 to 147 °C
C[C@H](NS(=O)(=O)c1cnc(-c2c(C#N)c3cc(C4CC4)cnc3n2C2CCC2)nc1)C(F)(F)F [Cpd 119, 2-(3-cyano-1-cyclobutyl-5-cyclopropyl-1H-pyrrolo[2,3-b]pyridin-2-yl)-N-[(2S)-1,1,1-trifluoropropan-2-yl]pyrimidine-5-sulfonamide] | < 500 nM | 176 to 183 °C
CC(C)(NS(=O)(=O)c1ccc(-c2c(C#N)c3cc(C4CC4)cnc3n2C2CCC2)cc1)C(F)(F)F [Cpd 121, 4-(3-cyano-1-cyclobutyl-5-cyclopropyl-1H-pyrrolo[2,3-b]pyridin-2-yl)-N-(1,1,1-trifluoro-2-methylpropan-2-yl)benzenesulfonamide] | < 500 nM | 207 to 212 °C
C[C@H](NS(=O)(=O)c1ccc(-c2c(C#N)c3cc(OC(F)F)cnc3n2C2CCC2)nc1)C(F)(F)F [Cpd 122, 6-[3-cyano-1-cyclobutyl-5-(difluoromethoxy)-1H-pyrrolo[2,3-b]pyridin-2-yl]-N-[(2S)-1,1,1-trifluoropropan-2-yl]pyridine-3-sulfonamide] | < 500 nM | 155 to 156 °C
N#Cc1c(-c2ccc(S(=O)(=O)NC3(C(F)(F)F)CC3)cn2)n(C2CCC2)c2ncc(C3CC3)cc12 [Cpd 124, 6-(3-cyano-1-cyclobutyl-5-cyclopropyl-1H-pyrrolo[2,3-b]pyridin-2-yl)-N-[1-(trifluoromethyl)cyclopropyl]pyridine-3-sulfonamide] | < 500 nM | 163 to 171 °C
CC(C)(C)NS(=O)(=O)c1ccc(-c2c(C#N)c3cc(C4CC4)cnc3n2C2CCC2)cc1 [Cpd 125, N-tert-butyl-4-(3-cyano-1-cyclobutyl-5-cyclopropyl-1H-pyrrolo[2,3-b]pyridin-2-yl)benzenesulfonamide] | < 500 nM | 210 to 215 °C
